Experimental data published in US20250306018A1, “METHODS FOR CHARACTERIZING INTERACTIONS BETWEEN ANALYTES” (Nautilus Subsidiary, Inc., priority 2021, published 2025).

Tested on: serum proteins
Assay: Binding of fluorescently-labeled detectable probes to a single-analyte array of serum protein conjugates, confocal fluorescent microscopy
Set-up: species or system human
Conditions: patterned array of serum protein conjugates
From the text: A blood sample is collected from a human medical subject. A serum fraction containing serum proteins is purified from the blood sample via centrifugation of a whole blood sample obtained from the medical subject and collection of the resulting supernatant. The supernatant includes collected serum proteins as well as several impurities, including trace amounts of clotting factors, vitamins, cofactors, nucleic acids, triglycerides, cholesterols, electrolytes (e.g., Ca^2+, Mg^2+, Na^+, K^+, Fe^2+, etc.), trace amounts of non-human antigens (e.g, viral antigens), and trace amounts of the medical subject's prescribed pharmaceuticals. The fraction containing the extracted serum proteins is modified to incorporate a transcyclooctene (TCO) moiety at some of the amine-containing amino acid sidechain of the present proteins. Each modified serum protein is conjugated to a structured nucleic acid particle (SNAP) containing a methyltetrazine (mTz) attachment moiety via a TCO-mTz Click-type reaction to form a plurality of serum protein conjugates. Certain impurities are also conjugated to SNAPs due to cross-reactivity with functionalization reagents and/or methyltetrazine. […]
The patterned array of serum protein conjugates is characterized by cyclical binding of affinity reagents. […] Identities of serum proteins are determined for […] of addresses on the array to beyond a confidence level of 99.9%. […]

In the case of VEGF, the “polypeptide species bound by the detectable probe” value (addresses with identified serum albumin excluded) is reported as “fewer polypeptide species” and the “binding affinity of the detectable probe for bound polypeptide species” value (judged by repeatability of observed binding) is reported as “low degree of binding affinity”.
